Where two headings read alike, the source gives them in different places.
Test: Phase 1 single ascending dose (SAD) study: pharmacokinetics, food effect, formulation bridging
Assay type: in vivo, human
Conditions: for half-life / Tmax / AUC(0-inf) / Cmax / AUC(0-t) / Vd/F: both sexes, human, in vivo; for AUC(0-t): read-out: AUC0-24; for Vd/F: read-out: Vz/F
Description: Type of Study—This was an FIH, randomized, observer-blind, placebo-controlled study designed to evaluate the safety, tolerability, PK, and PD of Compound I in healthy subjects. The study consisted of: single ascending dose (SAD) cohorts (1-80 mg/day) plus formulation bridging and food effect (FE) cohorts.
Approximately 64 male and female subjects were enrolled into 8 planned cohorts in the SAD study. In each cohort, a total of 8 subjects were randomized to receive a single oral capsule dose of Compound I (n=6) or placebo (n=2) in the morning with approximately 240 mL of water after an overnight fast of at least 8 hours.
Cohort 4 was an FE (food effect) cohort where subjects received Compound I capsules or placebo, fasted on Day 1 and Compound I or placebo after a high-fat, high-calorie breakfast on Day 8 after a 7-day washout period.
Cohort 5 was a formulation bridging cohort where subjects will receive Compound I capsules or placebo on Day 1 and Compound I tablets or placebo on Day 8 after a 7-day washout period.
The dosage form of Compound I in Cohorts 6, 7, and 8 were capsules and the subjects will receive a single oral dose of Compound I (n=6) capsules or placebo (n=2) on Day 1 after an overnight fast of at least 8 hours.

[1] = po, 1 mg, single oral dose 1 mg, capsule, fasted
[2] = po, 3 mg, single oral dose 3 mg, capsule, fasted
[3] = po, 5 mg, single oral dose 5 mg, capsule, fasted
[4] = po, 15 mg, single oral dose 15 mg, capsule, fasted
[5] = po, 15 mg, single oral dose 15 mg, capsule, fed (high-fat, high-calorie breakfast)
[6] = po, 25 mg, single oral dose 25 mg, capsule, fasted
[7] = po, 25 mg, single oral dose 25 mg, tablet

Structure (SMILES): C=CC(=O)N1C[C@H](Nc2ncnc3[nH]cc([C@H]4CC4(F)F)c23)CC[C@@H]1C [Compound I, 1-((2S,5R)-5-((5-((R)-2,2-difluorocyclopropyl)-7H-pyrrolo[2,3-d]pyrimidin-4-yl)amino)-2-methylpiperidin-1-yl)prop-2-en-1-one]
- Difference in PK parameters between capsule and tablet formulation (25 mg single dose): No significant difference
- Plasma concentration dose dependence (SAD): increased in a dose-dependent manner
- Time to peak plasma concentration after dosing (SAD): ≤ 2 h
- Exposure dose proportionality (Cmax and AUC) (SAD, 1-80 mg single dose): dose-proportional
- half-life (oral, SAD, 1-80 mg single dose, read-out: Half-life (range across doses)): 1.5 to 2.5 h
- Tmax (oral, SAD, 1-80 mg single dose, read-out: Tmax (range across doses)): 0.7 to 1.2 h
- AUC(0-inf) [1]: 5.95 ng·h/mL
- Cmax [1]: 2.71 ng/mL
- AUC(0-t) [1]: 5.95 ng·h/mL
- half-life (po, 1 mg, single oral dose 1 mg, capsule, fasted, read-out: T1/2 (converted)): 1.51 h
- Tmax (po, 1 mg, single oral dose 1 mg, capsule, fasted, read-out: Tmax): 0.674 h
- Vd/F [1]: 384 L
- AUC(0-inf) [2]: 15.8 ng·h/mL
- Cmax [2]: 5.9 ng/mL
- AUC(0-t) [2]: 15.4 ng·h/mL
- half-life (po, 3 mg, single oral dose 3 mg, capsule, fasted, read-out: T1/2 (converted)): 1.53 h
- Tmax (po, 3 mg, single oral dose 3 mg, capsule, fasted, read-out: Tmax): 0.757 h
- Vd/F [2]: 419 L
- AUC(0-inf) [3]: 33.5 ng·h/mL
- Cmax [3]: 11.9 ng/mL
- AUC(0-t) [3]: 33.1 ng·h/mL
- half-life (po, 5 mg, single oral dose 5 mg, capsule, fasted, read-out: T1/2 (converted)): 1.53 h
- Tmax (po, 5 mg, single oral dose 5 mg, capsule, fasted, read-out: Tmax): 1.07 h
- Vd/F [3]: 331 L
- AUC(0-inf) [4]: 96.7 ng·h/mL
- Cmax [4]: 31.5 ng/mL
- AUC(0-t) [4]: 95.7 ng·h/mL
- half-life (po, 15 mg, single oral dose 15 mg, capsule, fasted, read-out: T1/2 (converted)): 1.61 h
- Tmax (po, 15 mg, single oral dose 15 mg, capsule, fasted, read-out: Tmax): 1 h
- Vd/F [4]: 360 L
- AUC(0-inf) [5]: 93.9 ng·h/mL
- Cmax [5]: 17.6 ng/mL
- AUC(0-t) [5]: 105 ng·h/mL
- half-life (po, 15 mg, single oral dose 15 mg, capsule, fed (high-fat, high-calorie breakfast), read-out: T1/2 (converted)): 1.73 h
- Tmax (po, 15 mg, single oral dose 15 mg, capsule, fed (high-fat, high-calorie breakfast), read-out: Tmax): 5 h
- Vd/F [5]: 399 L
- AUC(0-inf) [6]: 154 ng·h/mL
- Cmax [6]: 47 ng/mL
- AUC(0-t) [6]: 153 ng·h/mL
- half-life (po, 25 mg, single oral dose 25 mg, capsule, fasted, read-out: T1/2 (converted)): 1.57 h
- Tmax (po, 25 mg, single oral dose 25 mg, capsule, fasted, read-out: Tmax): 1.35 h
- Vd/F [6]: 366 L
- AUC(0-inf) [7]: 199 ng·h/mL
- Cmax [7]: 63.6 ng/mL

From US20260191863A1, “PYRROLOPYRIMIDINE COMPOSITIONS FOR TREATMENT OF ITK MEDIATED CONDITIONS” (ACLARIS THERAPEUTICS, INC., priority 2022, published 2026)
